Assay [1] has as its target Beta Secretase enzyme (BACE1) (Homo sapiens, UniProt P56817). Description: In vitro enzymatic BACE FRET assay. In kind it is biochemical. Particulars: read-out: BACE1 FRET assay IC50. The procedure, abridged:
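Readout: dequenched fluorescence (ex 488 nm/[…]) after neutralizing with Tris buffer. Reactions, begun by adding 50 nM quenched peptide substrate spanning the BACE cleavage site, were incubated one hour at pH 4.2 in 0.05 M acetate with 100 uM genapol and 10% final DMSO.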

The subject of assay [2] is Aβ40 in conditioned medium of cells stably expressing Amyloid Precursor Protein (APP). Briefly: In vitro BACE cell-based assay (HEK cell assay), Aβ40 sandwich ELISA. The conditions noted are these: Homo sapiens, HEK293. The procedure, abridged:
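Aβ40 in conditioned medium was quantified by time-resolved fluorescence sandwich ELISA (pAb40 capture 3 h at 4 °C, biotin-6E10 detection 2 h at 4 °C) after 24 h compound exposure of APP-expressing cells. Doses spanned 10 points from 100 μM or 10 μM top, 0.1% DMSO; IC50 was derived from percent of control.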

For assay [3], the target named is T1, Cathepsin D (Cat D) (Homo sapiens, UniProt P07339).
T1 construct: Recombinant Cat D was expressed in CHO cells; made in house; host or cells: CHO cells
Description: In vitro enzymatic Cathepsin D (Cat D) FRET assay. The conditions noted are these: read-out: CatD IC50. The class given is biochemical. The procedure, abridged:
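FRET read-out: a fluorophore/quencher-labelled peptide substrate is cleaved by 9 nM Cat D (recombinant, CHO-expressed) following a one-hour preincubation with inhibitor dilutions in DMSO. Tris buffer added to neutralize pH ends the reaction before fluorescence measurement.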

Drawing on patent US20140107109A1, “AMINO-DIHYDROTHIAZINE AND AMINO-DIOXIDO DIHYDROTHIAZINE COMPOUNDS AS BETA-SECRETASE ANTAGONISTS AND METHODS OF USE” (Amgen Inc., priority 2012, published 2014), this text covers IC50 for 20 compounds.

The structures appear in SMILES notation. pIC50: −log10 of the molar value.

As usually defined, the pIC50 is the IC50 on a negative log10 scale, so that one unit is a factor of ten.

Chain of Beta Secretase enzyme (BACE1) (P56817 46-501): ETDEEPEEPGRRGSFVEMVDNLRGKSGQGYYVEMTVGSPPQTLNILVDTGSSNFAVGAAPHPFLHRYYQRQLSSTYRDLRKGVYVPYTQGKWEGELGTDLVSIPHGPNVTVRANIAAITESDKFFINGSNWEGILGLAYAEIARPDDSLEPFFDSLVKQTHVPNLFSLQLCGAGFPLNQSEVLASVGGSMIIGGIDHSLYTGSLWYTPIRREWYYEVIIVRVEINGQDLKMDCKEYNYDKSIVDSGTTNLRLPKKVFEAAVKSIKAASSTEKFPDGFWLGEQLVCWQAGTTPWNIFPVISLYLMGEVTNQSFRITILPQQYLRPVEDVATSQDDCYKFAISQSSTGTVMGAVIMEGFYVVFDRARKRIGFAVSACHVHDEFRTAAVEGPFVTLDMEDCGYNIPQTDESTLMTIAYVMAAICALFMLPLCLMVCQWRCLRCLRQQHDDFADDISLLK
T1 sequence (P07339 65-412, species assumed): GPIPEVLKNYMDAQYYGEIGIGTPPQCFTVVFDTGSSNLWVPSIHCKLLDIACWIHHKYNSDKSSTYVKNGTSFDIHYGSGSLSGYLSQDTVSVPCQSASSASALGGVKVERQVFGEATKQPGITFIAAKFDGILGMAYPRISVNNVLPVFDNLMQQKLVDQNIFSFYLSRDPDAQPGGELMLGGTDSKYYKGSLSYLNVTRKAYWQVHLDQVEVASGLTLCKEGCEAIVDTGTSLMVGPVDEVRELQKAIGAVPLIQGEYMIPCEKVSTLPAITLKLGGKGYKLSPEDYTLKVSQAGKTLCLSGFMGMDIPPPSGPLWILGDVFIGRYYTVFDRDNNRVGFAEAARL

Take `CCc1c(C(=O)Nc2ccc(F)c([C@]3(CF)CS(=O)(=O)C(C)(C)C(N)=N3)c2)nc2ccc(Cl)cn12` [Example 394, N-(3-((3S)-5-amino-3-(fluoromethyl)-6,6-dimethyl-1,1-dioxido-3,6-dihydro-2H-1,4-thiazin-3-yl)-4-fluorophenyl)-6-chloro-3-ethylimidazo[1,2-a]pyridine-2-carboxamide]: the pIC50 in assay [1] is 8.08; in assay [2], 7.63; in assay [3] it was < 4.83.

`CC(C)c1c(C(=O)Nc2ccc(F)c([C@]3(CF)CS(=O)(=O)C(C)(C)C(N)=N3)c2)nc2ccc(Cl)cn12` [Example 395, N-(3-((3S)-5-amino-3-(fluoromethyl)-6,6-dimethyl-1,1-dioxido-3,6-dihydro-2H-1,4-thiazin-3-yl)-4-fluorophenyl)-6-chloro-3-(1-methylethyl)imidazo[1,2-a]pyridine-2-carboxamide]: the pIC50 in assay [1] was 7.42; in assay [2] it was 6.90; in assay [3] it was 3.09.

As for `Cc1cc(Cl)cnc1C(=O)Nc1ccc(F)c([C@]23C[C@H]2S(=O)(=O)C(C)(C)C(N)=N3)c1` [Example 396, N-(3-((1R,6R)-4-amino-3,3-dimethyl-2,2-dioxido-2-thia-5-azabicyclo[4.1.0]hept-4-en-6-yl)-4-fluorophenyl)-5-chloro-3-methyl-2-pyridinecarboxamide], the pIC50 in assay [1] is 8.62; in assay [2], 6.06; in assay [3], 3.73.

With `Cc1nc(F)c([C@]2(C)CS(=O)(=O)C(C)(C)C(N)=N2)cc1NC(=O)c1ccc(Cl)cn1` [Example 397, N-(5-((3R)-5-amino-3,6,6-trimethyl-1,1-dioxido-3,6-dihydro-2H-1,4-thiazin-3-yl)-6-fluoro-2-methyl-3-pyridinyl)-5-chloro-2-pyridinecarboxamide], the pIC50 was 5.52 in assay [1], 5.49 in assay [2] and 3.28 in assay [3].

On to `CC1(C)C(N)=N[C@](C)(c2cc(NC(=O)c3ccc(Cl)cn3)cnc2F)CS1(=O)=O` [Example 398, N-(5-((3R)-5-amino-3,6,6-trimethyl-1,1-dioxido-3,6-dihydro-2H-1,4-thiazin-3-yl)-6-fluoro-3-pyridinyl)-5-chloro-2-pyridinecarboxamide], for which the pIC50 in assay [1] was 8.70; in assay [2], 7.94; in assay [3], 3.74.

As for `CC1(C)C(N)=N[C@](C)(c2cc(NC(=O)c3ccc(F)cn3)cnc2F)CS1(=O)=O` [Example 399, N-(5-((3R)-5-amino-3,6,6-trimethyl-1,1-dioxido-3,6-dihydro-2H-1,4-thiazin-3-yl)-6-fluoro-3-pyridinyl)-5-fluoro-2-pyridinecarboxamide], the pIC50 in assay [1] was 8.51; in assay [2], 7.41; in assay [3] it was 3.38.

On to `Cc1cc(OC(F)F)cnc1C(=O)Nc1cnc(F)c([C@]2(C)CS(=O)(=O)C(C)(C)C(N)=N2)c1` [Example 400, N-(5-((3R)-5-amino-3,6,6-trimethyl-1,1-dioxido-3,6-dihydro-2H-1,4-thiazin-3-yl)-6-fluoro-3-pyridinyl)-5-(difluoromethoxy)-3-methyl-2-pyridinecarboxamide], for which the pIC50 is 8.85 in assay [1], 8.05 in assay [2] and 3.81 in assay [3].

Turning to `COc1ccc(C(=O)Nc2cnc(F)c([C@]3(C)CS(=O)(=O)C(C)(C)C(N)=N3)c2)nc1` [Example 401, N-(5-((3R)-5-amino-3,6,6-trimethyl-1,1-dioxido-3,6-dihydro-2H-1,4-thiazin-3-yl)-6-fluoro-3-pyridinyl)-5-methoxy-2-pyridinecarboxamide], the results for the pIC50 in assay [1], in assay [2] and in assay [3] were 8.40, 7.75 and 3.12, respectively.

As to `CC1(C)C(N)=N[C@](C)(c2cc(NC(=O)c3cnc(OCC(F)(F)F)cn3)cnc2F)CS1(=O)=O` [Example 402, N-(5-((3R)-5-amino-3,6,6-trimethyl-1,1-dioxido-3,6-dihydro-2H-1,4-thiazin-3-yl)-6-fluoro-3-pyridinyl)-5-(2,2,2-trifluoroethoxy)-2-pyrazinecarboxamide], the values for the pIC50 in assay [1], in assay [2] and in assay [3] were 8.96, 7.96 and 2.56, respectively.

Regarding `CC1(C)C(N)=N[C@](C)(c2cc(NC(=O)c3ccc(C#N)cn3)cnc2F)CS1(=O)=O` [Example 403, N-(5-((3R)-5-amino-3,6,6-trimethyl-1,1-dioxido-3,6-dihydro-2H-1,4-thiazin-3-yl)-6-fluoro-3-pyridinyl)-5-cyano-2-pyridinecarboxamide], the figures for the pIC50 in assay [1], in assay [2] and in assay [3] were 8.72, 7.84 and 3.63, respectively.

Consider `CC1(C)C(N)=N[C@](C)(c2cc(NC(=O)c3ccc(C(F)F)cn3)cnc2F)CS1(=O)=O` [Example 404, N-(5-((3R)-5-amino-3,6,6-trimethyl-1,1-dioxido-3,6-dihydro-2H-1,4-thiazin-3-yl)-6-fluoro-3-pyridinyl)-5-(difluoromethyl)-2-pyridinecarboxamide], for which the results for the pIC50 in assay [1], in assay [2] and in assay [3] were 7.96, 7.92 and 3.61, respectively.

For `CC1(C)C(N)=N[C@](CF)(c2cc(NC(=O)c3cnc(OCC(F)(F)F)cn3)ccc2F)CS1(=O)=O` [Example 405, N-(3-((3S)-5-amino-3-(fluoromethyl)-6,6-dimethyl-1,1-dioxido-3,6-dihydro-2H-1,4-thiazin-3-yl)-4-fluorophenyl)-5-(2,2,2-trifluoroethoxy)-2-pyrazinecarboxamide], the pIC50 was 9.22 in assay [1], 7.57 in assay [2] and 3.24 in assay [3].

As to `CC1(C)C(N)=N[C@](CF)(c2cc(NC(=O)c3ccc(C#N)cn3)ccc2F)CS1(=O)=O` [Example 406, N-(3-((3S)-5-amino-3-(fluoromethyl)-6,6-dimethyl-1,1-dioxido-3,6-dihydro-2H-1,4-thiazin-3-yl)-4-fluorophenyl)-5-cyano-2-pyridinecarboxamide], the negative-log IC50 (pIC50) in assay [1] is 9.27; in assay [2], 7.84; in assay [3] it was < 3.40.

`C=C(C)c1cc(Cl)cnc1C(=O)Nc1ccc(F)c([C@]2(CF)CS(=O)(=O)C(C)(C)C(N)=N2)c1` [Example 407, N-(3-((3S)-5-amino-3-(fluoromethyl)-6,6-dimethyl-1,1-dioxido-3,6-dihydro-2H-1,4-thiazin-3-yl)-4-fluorophenyl)-5-chloro-3-(1-methylethenyl)-2-pyridinecarboxamide]: the pIC50 in assay [1] was 8.45; in assay [2] it was 7.24; in assay [3], 3.36.

In the case of `Cc1cc(Cl)cnc1C(=O)Nc1ccc(F)c([C@]2(CF)CS(=O)(=O)C(C)(C)C(N)=N2)c1` [Example 408, N-(3-((3S)-5-amino-3-(fluoromethyl)-6,6-dimethyl-1,1-dioxido-3,6-dihydro-2H-1,4-thiazin-3-yl)-4-fluorophenyl)-5-chloro-3-methyl-2-pyridinecarboxamide], the pIC50 in assay [1] was 9.40; in assay [2], 7.63; in assay [3], 3.87.

For the compound `CC1(C)C(N)=N[C@](CF)(c2cc(NC(=O)c3ncc(Cl)cc3F)ccc2F)CS1(=O)=O` [Example 409, N-(3-((3S)-5-amino-3-(fluoromethyl)-6,6-dimethyl-1,1-dioxido-3,6-dihydro-2H-1,4-thiazin-3-yl)-4-fluorophenyl)-5-chloro-3-fluoro-2-pyridinecarboxamide], the results for the pIC50 in assay [1], in assay [2] and in assay [3] were 9.22, 8.43 and 3.44, respectively.

In the case of `Cc1cc(OC(F)F)cnc1C(=O)Nc1ccc(F)c([C@@]2(CF)CS(=O)(=O)C3(CCC3)C(N)=N2)c1` [Example 411, N-(3-((7R)-9-amino-7-(fluoromethyl)-5,5-dioxido-5-thia-8-azaspiro[3.5]non-8-en-7-yl)-4-fluorophenyl)-5-(difluoromethoxy)-3-methyl-2-pyridinecarboxamide], the pIC50 in assay [1] is 5.45; in assay [2], < 4.81; in assay [3], 3.29.

Turning to `Cc1cc(OC(F)F)cnc1C(=O)Nc1ccc(F)c([C@]2(CF)CS(=O)(=O)C3(CCC3)C(N)=N2)c1` [Example 412, N-(3-((7S)-9-amino-7-(fluoromethyl)-5,5-dioxido-5-thia-8-azaspiro[3.5]non-8-en-7-yl)-4-fluorophenyl)-5-(difluoromethoxy)-3-methyl-2-pyridinecarboxamide], the pIC50 was 9.20 in assay [1], 8.09 in assay [2] and 4.10 in assay [3].

For the compound `CC1(C)C(N)=N[C@](C)(c2cc(Nc3ccc4c(c3)OC(F)(F)O4)cnc2F)CS1(=O)=O` [Example 414, (5R)-5-(5-((2,2-difluoro-1,3-benzodioxol-5-yl)amino)-2-fluoro-3-pyridinyl)-2,2,5-trimethyl-5,6-dihydro-2H-1,4-thiazin-3-amine 1,1-dioxide], the pIC50 in assay [1] is 5.49; in assay [2], 5.60; in assay [3], 4.47.

As for `C[C@@]1(c2cc(N)cnc2F)CS(=O)(=O)C2(CCC2)C(N)=N1` [Example 415, (7R)-7-(5-amino-2-fluoro-3-pyridinyl)-7-methyl-5-thia-8-azaspiro[3.5]non-8-en-9-amine 5,5-dioxide], the figures for the pIC50 in assay [1], in assay [2] and in assay [3] were 4.84, < 4.81 and 3.98, respectively.
